Where a name gives a salt, the structure may show the parent alone.
The compounds below were run against T1, Brd4 bromodomain 1 (BRD4(1)) (Homo sapiens, UniProt O60885) (assay: Inhibition of tetra-acetylated histone H4 binding to Brd4 bromodomain 1 (TR-FRET)). Conditions: tetra-acetylated histone H4 peptide, active = IC50 <30 μM.
T1 construct: Illustrative results with the first bromodomain of Brd4; made in house; host or cells: E. coli BL21 (DE3)
Design: key: Active: Compounds with an IC50 value less than 30 μM were deemed to be active.; Not Active: Compounds with an IC50 value less than 30 μM were deemed to be active
Description: Proteins were cloned and overexpressed with a N-terminal 6×His tag, then purified by nickel affinity followed by size exclusion chromatography. Briefly, E. coli BL21 (DE3) cells were transformed with a recombinant expression vector encoding N-terminally Nickel affinity tagged bromodomains from Brd2, Brd3, Brd4. Cell cultures were incubated at 37° C. with shaking to the appropriate density and induced overnight with IPTG. The supernatant of lysed cells was loaded onto Ni-IDA column for purification. Eluted protein is pooled, concentrated and further purified by size exclusion chromatography. Fractions representing monomeric protein were pooled, concentrated, aliquoted, and frozen at −80° C. for use in subsequent experiments.
Binding of tetra-acetylated histone H4 and BET bromodomains was confirmed by a Time Resolved Fluorescence Resonance Energy Transfer (TR-FRET) method. N-terminally His-tagged bromodomains (200 nM) and biotinylated tetra-acetylated histone H4 peptide (25-50 nM, Millipore) were incubated in the presence of Europium Cryptate-labeled streptavidin (Cisbio Cat. #610SAKLB) and XL665-labeled monoclonal anti-His antibody (Cisbio Cat. #61HISXLB) in a white 96 well microtiter plate (Greiner). For inhibition assays, serially diluted test compound was added to these reactions in a 0.2% final concentration of DMSO. Final buffer concentrations were 30 mM HEPES pH 7.4, 30 mM NaCl, 0.3 mM CHAPS, 20 mM phosphate pH 7.0, 320 mM KF, 0.08% BSA). After a 2-h incubation at room temperature, the fluorescence by FRET was measured at 665 and 620 nm by a SynergyH4 plate reader (Biotek). Illustrative results with the first bromodomain of Brd4 and the second bromodomain of Brd2 are shown below. The binding inhibitory activity was shown by a decrease in 665 nm fluorescence relative to 620 nm. IC50 values were determined from a dose response curve.

| FRET activity (IC50 <30 μM) BRD4(1) | Structure (SMILES) |
| --- | --- |
| Not Active | Cc1noc(C)c1-c1cc(N2CCNCC2)c(=O)n(Cc2ccccc2)c1 [Example 161, 1-Benzyl-5-(3,5-dimethylisoxazol-4-yl)-3-(piperazin-1-yl)pyridin-2(1H)-one Hydrochloride] |
| Active | Cc1noc(C)c1-c1cc(C(=O)O)c(=O)n(Cc2ccccc2)c1 [Example 229, 1-Benzyl-5-(3,5-dimethylisoxazol-4-yl)-2-oxo-1,2-dihydropyridine-3-carboxylic acid] |
| Not Active | Cc1noc(C(=O)O)c1-c1ccc(=O)n(Cc2ccc(Cl)cc2)c1 [Example 260, 4-(1-(4-chlorobenzyl)-6-oxo-1,6-dihydropyridin-3-yl)-3-methylisoxazole-5-carboxylic acid] |
| Not Active | Cc1noc(C)c1CNc1ccc(=O)n(Cc2ccccc2)n1 [Example 201, 2-Benzyl-6-(((3,5-dimethylisoxazol-4-yl)methyl)amino)pyridazin-3(2H)-one] |
| Active | Cc1nsc(C)c1-c1ccc(=O)n(Cc2ccccc2)c1 [Example 196, 1-benzyl-5-(3,5-dimethylisothiazol-4-yl)pyridin-2(1H)-one] |
| Not Active | CON(C)C(=O)c1noc(C)c1-c1ccc(=O)n(Cc2ccccc2)c1 [Example 249, 4-(1-benzyl-6-oxo-1,6-dihydropyridin-3-yl)-N-methoxy-N,5-dimethylisoxazole-3-carboxamide] |
| Not Active | CNC(=O)c1onc(C)c1-c1ccc(=O)n(Cc2ccc(Cl)cc2)c1 [Example 265, 4-(1-(4-chlorobenzyl)-6-oxo-1,6-dihydropyridin-3-yl)-N,3-dimethylisoxazole-5-carboxamide] |
| Active | CC(c1ccccc1)n1nc(-c2ccc(O)cc2)ccc1=O (stereo not shown) [Example 178, 6-(4-hydroxyphenyl)-2-(1-phenylethyl)pyridazin-3(2H)-one] |
| Not Active | COC(=O)c1onc(C)c1-c1ccc(=O)n(Cc2ccc(Cl)cc2)c1 [Example 259, methyl 4-(1-(4-chlorobenzyl)-6-oxo-1,6-dihydropyridin-3-yl)-3-methylisoxazole-5-carboxylate] |
| Active | Cc1ccc(Nc2cc(-c3c(C)noc3C)cn(Cc3ccccc3)c2=O)cn1 [Example 245, 1-benzyl-5-(3,5-dimethylisoxazol-4-yl)-3-((6-methylpyridin-3-yl)amino)pyridin-2(1H)-one] |
| Active | Cc1noc(C)c1-c1cc(Nc2ccncc2)c(=O)n(Cc2ccccc2)c1 [Example 195, 1-benzyl-5-(3,5-dimethylisoxazol-4-yl)-3-(pyridin-4-ylamino)pyridin-2(1H)-one] |
| Active | Cc1noc(C)c1-c1cc(-n2ccnc2)c(=O)n(Cc2ccccc2)c1 [Example 204, 1-benzyl-5-(3,5-dimethylisoxazol-4-yl)-3-(1H-imidazol-1-yl)pyridin-2(1H)-one] |
| Active | Cc1onc(CO)c1-c1ccc(=O)n(Cc2ccc(Cl)cc2)c1 [Example 159, 1-(4-Chlorobenzyl)-5-(3-(hydroxymethyl)-5-methylisoxazol-4-yl)pyridin-2(1H)-one] |
| Active | Cc1noc(C)c1-c1cc(N)c(=O)n(Cc2ccncc2Cl)c1 [Example 253] |
| Active | Cc1noc(C)c1-c1cc(NCC(F)(F)F)c(=O)n(Cc2ccc(Cl)cc2)c1 [Example 243, 1-(4-Chlorobenzyl)-5-(3,5-dimethylisoxazol-4-yl)-3-((2,2,2-trifluoroethyl)amino)pyridin-2(1H)-one] |
| Active | Cc1noc(C)c1-c1cc(Nc2cccnc2)c(=O)n(Cc2ccccc2)n1 [Example 248, 2-benzyl-6-(3,5-dimethylisoxazol-4-yl)-4-(pyridin-3-ylamino)pyridazin-3(2H)-one] |
| Not Active | O=C1CC(c2ccc(=O)n(Cc3ccccc3)c2)CN1 (stereo not shown) [Example 268, 1-Benzyl-5-(5-oxopyrrolidin-3-yl)pyridin-2(1H)-one] |

| FRET activity (IC50 <30 μM) BRD4(1) | Structure (SMILES) |
| --- | --- |
| Active | Cc1noc(C)c1-c1cc(Nc2cnccn2)c(=O)n(Cc2ccccc2)c1 [Example 235, 1-benzyl-5-(3,5-dimethylisoxazol-4-yl)-3-(pyrazin-2-ylamino)pyridin-2(1H)-one] |
| Active | COc1ccc(Nc2cc(-c3c(C)noc3C)cn(Cc3ccccc3)c2=O)cn1 [Example 234, 1-benzyl-5-(3,5-dimethylisoxazol-4-yl)-3-((6-methoxypyridin-3-yl)amino)pyridin-2(1H)-one] |
| Not Active | COC(=O)c1noc(C)c1-c1ccc(=O)n(Cc2ccc(Cl)cc2)c1 [Example 199, Methyl 4-(1-(4-chlorobenzyl)-6-oxo-1,6-dihydropyridin-3-yl)-5-methylisoxazole-3-carboxylate] |
| Active | Cc1noc(C)c1-c1cc(Nc2ccc(F)cc2)c(=O)n(Cc2ccccc2)c1 [Example 156, 1-Benzyl-5-(3,5-dimethylisoxazol-4-yl)-3-((4-fluorophenyl)amino)pyridin-2(1H)-one] |
| Not Active | Cc1noc(C)c1-c1cc(CN)c(=O)n(Cc2ccccc2)c1 [Example 266, 3-(Aminomethyl)-1-benzyl-5-(3,5-dimethylisoxazol-4-yl)pyridin-2(1H)-one] |
| Active | Cc1noc(C)c1-c1cc(NC2CCNC2)c(=O)n(Cc2ccccc2)c1 (stereo not shown) [Example 239, 1-benzyl-5-(3,5-dimethylisoxazol-4-yl)-3-(pyrrolidin-3-ylamino)pyridin-2(1H)-one] |
| Active | Cc1onc(C(N)=O)c1-c1ccc(=O)n(Cc2ccc(Cl)cc2)c1 [Example 202, 4-(1-(4-Chlorobenzyl)-6-oxo-1,6-dihydropyridin-3-yl)-5-methylisoxazole-3-carboxamide] |
| Active | Cc1noc(C)c1-c1cc(Nc2cncnc2)c(=O)n(Cc2ccccc2)c1 [Example 236, 1-benzyl-5-(3,5-dimethylisoxazol-4-yl)-3-(pyrimidin-5-ylamino)pyridin-2(1H)-one] |
| Not Active | Cc1nnc(C)n1-c1ccc(=O)n(Cc2ccc(Cl)cc2)c1 [Example 197, 1-(4-chlorobenzyl)-5-(3,5-dimethyl-4H-1,2,4-triazol-4-yl)pyridin-2(1H)-one] |
| Active | Cc1noc(C)c1-c1cc(N)c(=O)n(Cc2cccc3c2OCO3)c1 [Example 257, 3-amino-1-(benzo[d][1,3]dioxol-4-ylmethyl)-5-(3,5-dimethylisoxazol-4-yl)pyridin-2(1H)-one] |
| Not Active | Cc1noc(C)c1-c1cc(NS(C)(=O)=O)c(=O)n(Cc2ccccc2)c1 [Example 200, N-(1-Benzyl-5-(3,5-dimethylisoxazol-4-yl)-2-oxo-1,2-dihydropyridin-3-yl)methanesulfonamide] |
| Not Active | Cc1noc(C)c1-c1cc(N)c(=O)n(C(C)c2ccc(C#N)cc2)c1 (stereo not shown) [Example 269, 4-(1-(3-amino-5-(3,5-dimethylisoxazol-4-yl)-2-oxopyridin-1(2H)-yl)ethyl)benzonitrile] |
| Active | COc1cc(=O)n(Cc2ccccc2)cc1-c1c(C)noc1C [Example 154, 1-Benzyl-5-(3,5-dimethylisoxazol-4-yl)-4-methoxypyridin-2(1H)-one] |
| Not Active | Cc1onc(C(=O)O)c1-c1ccc(=O)n(Cc2ccc(Cl)cc2)c1 [Example 225, 4-(1-(4-Chlorobenzyl)-6-oxo-1,6-dihydropyridin-3-yl)-5-methylisoxazole-3-carboxylic acid] |
| Active | Cc1noc(C)c1-c1cc(N2CCN(C)CC2)c(=O)n(Cc2ccccc2)c1 [Example 153, 1-Benzyl-5-(3,5-dimethylisoxazol-4-yl)-3-(4-methylpiperazin-1-yl)pyridin-2(1H)-one Hydrochloride] |
| Active | Cc1noc(C)c1-c1cc(Nc2ccc(C#N)nc2)c(=O)n(Cc2ccccc2)c1 [Example 232, 5-((1-benzyl-5-(3,5-dimethylisoxazol-4-yl)-2-oxo-1,2-dihydropyridin-3-yl)amino)picolinonitrile] |
| Active | Cc1noc(C)c1-c1cc(N)c(=O)n(C)c1 [Example 224, 3-Amino-5-(3,5-dimethylisoxazol-4-yl)-1-methylpyridin-2(1H)-one] |

— patent publication US9271978B2 (Zenith Epigenetics Corp., priority 2012, dated 2016)
